Measured values as given in US9675064B2, “Microbicidal composition” (Dow Global Technologies LLC, priority 2013, dated 2017).
Like-named read-outs stand apart in the source and are kept apart here.

Experiments:
Type in all cases: cell-based
any organism tested = experiment: Synergy index test, summary statements over the organisms tested; conditions: for Synergy of biocide paired with surfactant: against any organism tested; for ratio of surfactant to biocide where synergy was observed: not commercially relevant (less biocide relative to surfactant)
Method: Surfactants and biocides were evaluated for synergy by determining the synergy index (S.I.) of the combination. Synergy index was calculated based on minimum inhibitory concentrations (MIC) of two antimicrobial compounds (A and B) alone and in combinations. The tests organisms were Gram negative bacteria (Pseudomonas aeruginosa ATCC #15442), Gram positive bacteria (Staphylococcus aureus ATCC #6538), yeast (Candida albicans ATCC#10203) and mold (Aspergillus niger ATCC#16404). Contact time for the bacteria was 24 and 48 hours, yeast was 48 and 72 hrs, and 3 and 7 days for mold. The test was carried out in 96 well microtiter plates. R^1O(CH2CH(CH3)O)5(CH2CH2O)9H, Surf. A where R^1 is 2-ethylhexyl R^2O(CH2CH(CH3)O)3(CH2CH2O)5H Surf. D R^2O(CH2CH(CH3)O)3(CH2CH2O)7H Surf. E In Surf. D and Surf. E, R^2 is a mixture of C8-C14 linear alkyl groups (70% C8-C10 linear alkyl and 30% C12-C14 linear alkyl)
SI is calculated as follows: Ca/CA+Cb/CB=Synergy Index (“SI”)
Wherein: • CA=concentration of compound A in ppm, acting alone, which produced an end point (MIC of Compound A). • Ca=concentration of compound A in ppm, in the mixture, which produced an end point. • CB=concentration of compound B in ppm, acting alone, which produced an end point (MIC of Compound B). • Cb=concentration of compound B in ppm, in the mixture, which produced an end point. When the sum of Ca/CA and Cb/CB is greater than one, antagonism is indicated.

[1] = test system: Candida albicans ATCC#10203; experiment: MIC / synergy index test in 96 well microtiter plates, yeast; conditions: for MIC: Candida albicans, ATCC10203, 48 h
Method: (§1) Surfactants and biocides were evaluated for synergy by determining the synergy index (S.I.) of the combination. Synergy index was calculated based on minimum inhibitory concentrations (MIC) of two antimicrobial compounds (A and B) alone and in combinations. The tests organisms were Gram negative bacteria (Pseudomonas aeruginosa ATCC #15442), Gram positive bacteria (Staphylococcus aureus ATCC #6538), yeast (Candida albicans ATCC#10203) and mold (Aspergillus niger ATCC#16404). Contact time for the bacteria was 24 and 48 hours, yeast was 48 and 72 hrs, and 3 and 7 days for mold. The test was carried out in 96 well microtiter plates. […] E In Surf. D and Surf. […] [table] […] SI is calculated as follows: Ca/CA+Cb/CB=Synergy Index (“SI”) Wherein: • CA=concentration of compound A in ppm, acting alone, which produced an end point (MIC of Compound A). • Ca=concentration of compound A in ppm, in the mixture, which produced an end point. • CB=concentration of compound B in ppm, acting alone, which produced an end point (MIC of Compound B). • Cb=concentration of compound B in ppm, in the mixture, which produced an end point. When the sum of Ca/CA and Cb/CB is greater than one, antagonism is indicated.

[2] = test system: Pseudomonas aeruginosa ATCC #15442; experiment: MIC / synergy index test in 96 well microtiter plates, Gram negative bacteria
Method: as §1

[3] = test system: Aspergillus niger ATCC#16404; experiment: MIC / synergy index test in 96 well microtiter plates, mold; conditions: A. niger ATCC#16404, 3rd day, Media PDB; for MIC: Aspergillus niger, ATCC16404, read-out: CB (MIC of compound B acting alone), B: Potassium Sorbate
Method: as §1

[4] = test system: Staphylococcus aureus ATCC #6538; experiment: MIC / synergy index test in 96 well microtiter plates, Gram positive bacteria; conditions: for CB (MIC of compound B acting alone): S. aureus ATCC# 6538, 24 hrs
Method: as §1

## Oc1ccccc1-c1ccccc1 [OPP]
Any organism tested; paired with Surf. D
  Synergy of biocide paired with surfactant: no synergy

## O=C([O-])c1ccccc1.[Na+] [Sodium Benzoate]
[1]; B: Sodium Benzoate, C. albicans ATCC#10203, 48 hrs, Media PDB, inoculum 5.726E+05 CFU/ml
  CB (MIC of compound B acting alone): 1200 ppm
[2]; B: Sodium Benzoate, Ps. aeruginosa ATCC#15442, 48 hrs, Media 1/10TSB, inoculum 5.727E+07 CFU/ml
  CB (MIC of compound B acting alone): 14991 ppm
[3]; B: Sodium Benzoate, inoculum 1.156E+06
  CB (MIC of compound B acting alone): 5998 ppm
[4]; B: Sodium Benzoate, Media 1/10 TSB, inoculum 1.808E+05
  CB (MIC of compound B acting alone): 30000 ppm
[4]; B: Sodium benzoate, Media 1/10TSB, inoculum 1.808E+06 CFU/ml
  CB (MIC of compound B acting alone): 30000 ppm
Any organism tested; paired with Surf. A
  Synergy of biocide paired with surfactant: no synergy

## CCCCCCCCn1sccc1=O [OIT]
Any organism tested; combination with Surf. D
  ratio of surfactant to biocide where synergy was observed: 1:0.2 or greater
Any organism tested; combination with Surf. E
  ratio of surfactant to biocide where synergy was observed: 1:0.2 or greater

## CCC12COCN1COC2 [CS-1246]
Any organism tested; paired with Surf. D
  Synergy of biocide paired with surfactant: no synergy

## CCCCCCCCCCCCCC[P+](CCCC)(CCCC)CCCC.[Cl-] [TTPC]
Any organism tested; combination with Surf. E
  ratio of surfactant to biocide where synergy was observed: 1:0.2 or greater

## CC1(C)C(=O)N(CO)C(=O)N1CO [DMDMH]
Any organism tested; paired with Surf. D
  Synergy of biocide paired with surfactant: no synergy
Any organism tested; paired with Surf. E
  Synergy of biocide paired with surfactant: no synergy

## Cn1sc2ccccc2c1=O [MBIT]
Any organism tested; combination with Surf. D
  ratio of surfactant to biocide where synergy was observed: 1:0.05 or worse

## C/C=C/C=C/C(=O)[O-].[K+] [Potassium Sorbate]
[1]; read-out: CB (MIC of compound B acting alone), B: Potassium Sorbate, C. albicans ATCC#10203, Media PDB, inoculum 1.156E+06 CFU/ml
  MIC: 800 µg/mL
[1]; read-out: CB (MIC of compound B acting alone), B: Potassium Sorbate, C. albicans ATCC#10203, Media PDB, inoculum 1.808E+06 CFU/ml
  MIC: 600 µg/mL
[1]; read-out: CB (MIC of compound B acting alone), B: Potassium Sorbate, C. albicans ATCC#10203, Media PDB, inoculum 5.726E+05 CFU/ml
  MIC: 1200 µg/mL
[2]; Pseudomonas aeruginosa, ATCC15442, 24 h, read-out: CB (MIC of compound B acting alone)
  MIC: 15000 µg/mL
[3]; inoculum 1.156E+06 (table with Surf. D)
  MIC: 6000 µg/mL
[3]; inoculum 1.156E+06 CFU/ml (table with Surf. A)
  MIC: 1000 µg/mL
[3]; inoculum 1.156E+06 CFU/ml (table with Surf. E)
  MIC: 1000 µg/mL
[4]; B: Potassium Sorbate, Media 1/10TSB, inoculum 1.808E+06 CFU/ml
  CB (MIC of compound B acting alone): 30000 ppm
[4]; Staphylococcus aureus, ATCC6538, 24 h, read-out: CB (MIC of compound B acting alone)
  MIC: 30000 µg/mL

## CCCCCCCCCC[N+](C)(C)CCCCCCCCCC.[Cl-] [DIDAC]
Any organism tested; combination with Surf. A
  ratio of surfactant to biocide where synergy was observed: 1:0.2 or greater
Any organism tested; combination with Surf. D
  ratio of surfactant to biocide where synergy was observed: 1:0.2 or greater

## CCCCNC(=O)OCC#CI [IPBC]
Any organism tested; combination with Surf. A
  ratio of surfactant to biocide where synergy was observed: 1:0.2 or greater
Any organism tested; combination with Surf. D
  ratio of surfactant to biocide where synergy was observed: 1:0.05 or worse
Any organism tested; combination with Surf. E
  ratio of surfactant to biocide where synergy was observed: 1:0.2 or greater

## O=[N+]([O-])C(CO)(CO)CO [TRIS NITRO]
Any organism tested; paired with Surf. A
  Synergy of biocide paired with surfactant: no synergy
